# Experimental data: patent publication US8674113B2, “Compounds” (Boehringer Ingelheim International GmbH, priority 2010, dated 2014)
# Target: mPGES-1 in A549 cells (Homo sapiens (Human), UniProt O14684)
# Experiment: A549 cell-based assay (PGE2 formation, 50% human serum)
# Conditions: IL-1β 5 ng/ml, 10 nM arachidonic acid, 20-24 h, read-out: mPGES-1 inhibitory effect IC50 in the cell assay
# Protocol: Although the enzymatic assay is a high throughput assay the disadvantage is that it uses a recombinant protein which is not in its natural environment. Accordingly a cellular assay was established in which a cell line of human origin (A549) expressing the mPGES-1 protein was used. In addition in order to mimic the situation in humans in which compounds can be bound to plasma proteins 50% human serum is added in the assay.
# A549 cells (ATCC: CCL-185) are grown to about 90% confluence in F-12K Nutrient Mixture (Kaighn's Mod. Gibco) containing 10% FBS in a humified incubator at 37° C. and 5% CO2. Cells were detached using Trypsin-EDTA. A549 cells were seeded in a 384-well collagene plate at a density of 7000 cells/well (50 μl) in F-12 medium containing 1% Penicillin-Streptomycin and 50% human serum. The cells were allowed to attach for 3-4 h. After that the cells were incubated for 20-24 h in F-12k medium supplemented with 50% human serum, 1% Penicillin-Streptomycin and containing IL-1β at a final concentration of 5 ng/ml as well as 10 nM arachidonic acid in the presence of a vehicle or a test compound. The total volume is 100 μl.
# Concentrations of PGE2 in the cell free medium (10 μl) were measured using a commercially available HTRF kit from Cisbio (as described above). The PGE2 formation in the absence of test compound was taken as 100%.
# IC50 values were derived from at 6-8 point titrations using conventional software.
# Sequence of mPGES-1 in A549 cells (O14684 whole entry): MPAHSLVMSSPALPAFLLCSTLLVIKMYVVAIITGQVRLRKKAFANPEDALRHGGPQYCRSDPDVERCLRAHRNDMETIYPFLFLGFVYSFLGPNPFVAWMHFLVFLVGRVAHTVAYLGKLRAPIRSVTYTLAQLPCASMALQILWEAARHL
row,SMILES,IC50
1,Cn1c(Nc2c(Cl)ccc(CNC(=O)C(C)(C)C)c2F)nc2cc(C(=O)N[C@H]3CC[C@H](C(F)(F)F)CC3)c(N3CCC(C(F)(F)F)C3)cc21 (stereo partly shown) [Example 6],4 nM
2,Cn1c(Nc2c(Cl)ccc(CNC(=O)C(C)(C)C)c2Cl)nc2cc(C(=O)NC3CC(F)(F)C3)c(NCC(F)F)cc21 [Example 16],197 nM
3,CN(Cc1ncnn1C)c1cc2c(cc1C(=O)N[C@H]1CC[C@H](C(F)(F)F)CC1)nc(Nc1c(Cl)ccc(CNC(=O)C(C)(C)C)c1Cl)n2C [Example 116],80 nM
4,Cc1n[nH]c(CN(C)c2cc3c(cc2C(=O)NCC(F)(F)C(F)(F)F)nc(Nc2c(Cl)ccc(CNC(=O)C(C)(C)F)c2Cl)n3C)n1 [Example 152],17 nM
5,Cn1c(Nc2c(Cl)ccc(CNC(=O)C(C)(C)C)c2Cl)nc2cc(C(=O)N[C@H]3CC[C@@H](C(F)(F)F)CC3)c(N3CC4CC4C3)cc21 (stereo partly shown) [Example 155],6 nM
6,CC(C)(C)C(=O)NCc1ccc(Cl)c(Nc2nc3cc(C(=O)Nc4ccc(OC(F)(F)F)cc4)c(N4CCC(C(F)(F)F)CC4)cc3n2CCC(N)=O)c1Cl [Example 169],5 nM
7,CC(C)(C)C(=O)NCc1ccc(Cl)c(Nc2nc3cc(C(=O)N[C@H]4CC[C@H](C(F)(F)F)CC4)c(N4CCOCC4)cc3n2CCC(N)=O)c1Cl [Example 170],110 nM
8,CC(C)(C)C(=O)NCc1ccc(Cl)c(Nc2nc3cc(C(=O)N[C@H]4CC[C@H](C(F)(F)F)CC4)c(N4CCC(C(F)(F)F)CC4)cc3n2CCC(N)=O)c1Cl [Example 171],6 nM
9,Cn1c(Nc2c(Cl)ccc(CNC(=O)c3cccc[n+]3[O-])c2Cl)nc2cc(C(=O)NCCC(F)(F)F)c(N3CCC(C(F)(F)F)CC3)cc21 [Example 174],> 100 nM
10,Cn1nc(C(=O)NCc2ccc(Cl)c(Nc3nc4cc(C(=O)NCCC(F)(F)F)c(N5CCC(C(F)(F)F)CC5)cc4n3C)c2Cl)cc1N [Example 180],> 100 nM
11,Cn1c(Nc2c(Cl)ccc(CNC(=O)c3cc(CO)ccn3)c2Cl)nc2cc(C(=O)NCCC(F)(F)F)c(N3CCC(C(F)(F)F)CC3)cc21 [Example 181],> 100 nM
12,Cn1c(Nc2c(Cl)ccc(CNC(=O)c3n[nH]c4c3CCC4)c2Cl)nc2cc(C(=O)NCCC(F)(F)F)c(N3CCC(C(F)(F)F)CC3)cc21 [Example 183],> 100 nM
13,Cn1c(Nc2c(Cl)ccc(CNC(=O)c3cc[nH]n3)c2Cl)nc2cc(C(=O)NCCC(F)(F)F)c(N3CCC(C(F)(F)F)CC3)cc21 [Example 184],> 100 nM
14,Cn1c(Nc2c(Cl)ccc(CNC(=O)C(C)(C)O)c2Cl)nc2cc(C(=O)N[C@H]3CC[C@H](C(F)(F)F)CC3)c(N3CC4CC4C3)cc21 (stereo partly shown) [Example 190],9 nM
15,CN(C)c1ccnc(C(=O)NCc2ccc(Cl)c(Nc3nc4cc(C(=O)N[C@H]5CC[C@H](C(F)(F)F)CC5)c(N5CC6CC6C5)cc4n3C)c2Cl)c1 (stereo partly shown) [Example 195],51 nM
16,Cc1ccnc(C(=O)NCc2ccc(Cl)c(Nc3nc4cc(C(=O)N[C@H]5CC[C@H](C(F)(F)F)CC5)c(N5CC6CC6C5)cc4n3C)c2Cl)c1 (stereo partly shown) [Example 196],9 nM
17,CNc1cncc(C(=O)NCc2ccc(Cl)c(Nc3nc4cc(C(=O)N[C@H]5CC[C@H](C(F)(F)F)CC5)c(N5CC6CC6C5)cc4n3C)c2Cl)c1 (stereo partly shown) [Example 198],> 100 nM
18,Cc1ccc(C(=O)NCc2ccc(Cl)c(Nc3nc4cc(C(=O)N[C@H]5CC[C@H](C(F)(F)F)CC5)c(N5CC6CC6C5)cc4n3C)c2Cl)nc1C (stereo partly shown) [Example 199],8 nM

# Other lines, results leading:
row,IC50,SMILES
1,1 nM,"Cn1c(Nc2c(Cl)ccc(CNC(=O)C(C)(C)C)c2Cl)nc2cc(C(=O)N[C@H]3CC[C@H](C(F)(F)F)CC3)c(N3CCC(F)(F)C3)cc21 [Example 20, N-(trans-4-Trifluoromethyl-cyclohexyl)-2-{2,6-dichloro-3-[(2,2-dimethyl-propionylamino)-methyl]-phenylamino}-6-[3,3-difluoro-pyrrolidinyl]-1-methyl-1H-benzimidazole-5-carboxylic acid amide]"
2,< 1 nM,"Cn1c(Nc2c(Cl)ccc(CNC(=O)C(C)(C)C)c2Cl)nc2cc(C(=O)N[C@H]3CC[C@H](C(F)(F)F)CC3)c(N3CCC(C(F)(F)F)CC3)cc21 [Example 52, N-(trans-4-Trifluoromethyl-cyclohexyl)-2-{2,6-dichloro-3-[(2,2-dimethyl-propionylamino)-methyl]-phenylamino}-6-[4-trifluoromethyl-piperidinyl]-1-methyl-1H-benzimidazole-5-carboxylic acid amide]"
3,2 nM,"CC(C)(C)C(=O)NCc1ccc(Cl)c(Nc2nc3cc(C(=O)Nc4ccc(OC(F)(F)F)cc4)c(N4CC[C@@H](F)C4)cc3n2CC(F)F)c1Cl [Example 77, (R)—N-(4-Trifluoromethoxy-phenyl)-2-{2,6-dichloro-3-[(2,2-dimethyl-propionylamino)-methyl]-phenylamino}-6-[3-fluoro-pyrrolidinyl]-1-(2,2-difluorethyl)-1H-benzimidazole-5-carboxylic acid amide]"
4,3.5 nM,CN(Cc1nnc[nH]1)c1cc2c(cc1C(=O)N[C@H]1CC[C@H](C(F)(F)F)CC1)nc(Nc1c(Cl)ccc(CNC(=O)C(C)(C)C)c1Cl)n2C [Example 114]
5,2 nM,Cc1n[nH]c(CN(C)c2cc3c(cc2C(=O)N[C@H]2CC[C@H](C(F)(F)F)CC2)nc(Nc2c(Cl)ccc(CNC(=O)C(C)(C)F)c2Cl)n3C)n1 [Example 115]
6,1 nM,Cn1c(Nc2c(Cl)ccc(CNC(=O)C(C)(C)F)c2Cl)nc2cc(C(=O)N[C@H]3CC[C@H](C(F)(F)F)CC3)c(N3CCC4(CC3)CC4)cc21 [Example 123]
7,2 nM,Cn1c(Nc2c(Cl)ccc(CNC(=O)C(C)(C)F)c2Cl)nc2cc(C(=O)N[C@H]3CC[C@H](C(F)(F)F)CC3)c(N3CCC(C(C)(C)O)CC3)cc21 [Example 124]
8,1.4 nM,Cn1c(Nc2c(Cl)ccc(CNC(=O)C(C)(C)C)c2Cl)nc2cc(C(=O)N[C@H]3CC[C@H](C(F)(F)F)CC3)c(N3CCC(F)CC3)cc21 [Example 125]
9,2 nM,Cn1c(Nc2c(Cl)ccc(CNC(=O)C(C)(C)F)c2Cl)nc2cc(C(=O)Nc3ccc(OC(F)(F)F)cc3)c(N3CCOCC3)cc21 [Example 142]
10,2.6 nM,Cc1n[nH]c(CN(C)c2cc3c(cc2C(=O)Nc2ccc(OC(F)(F)F)cc2)nc(Nc2c(Cl)ccc(CNC(=O)C(C)(C)F)c2Cl)n3C)n1 [Example 143]
11,< 1 nM,Cn1c(Nc2c(Cl)ccc(CNC(=O)C(C)(C)F)c2Cl)nc2cc(C(=O)N[C@H]3CC[C@H](C(F)(F)F)CC3)c(N3CCOCC3)cc21 [Example 146]
12,2 nM,Cn1c(Nc2c(Cl)ccc(CNC(=O)C(C)(C)F)c2Cl)nc2cc(C(=O)NCCC(F)(F)F)c(N3CCC4(CC3)CC4)cc21 [Example 147]
13,1.4 nM,Cn1c(Nc2c(Cl)ccc(CNC(=O)C(C)(C)C)c2Cl)nc2cc(C(=O)NCC(F)(F)C(F)(F)F)c(N3CCC(F)CC3)cc21 [Example 151]
14,4.6 nM,Cn1c(Nc2c(Cl)ccc(CNC(=O)C(C)(C)F)c2Cl)nc2cc(C(=O)NCC(F)(F)C(F)(F)F)c(N3CCOCC3)cc21 [Example 153]
15,1 nM,Cn1c(Nc2c(Cl)ccc(CNC(=O)C(C)(C)C)c2Cl)nc2cc(C(=O)Nc3cc(C(C)(C)C)no3)c(N3CCC(C(F)(F)F)CC3)cc21 [Example 157]
16,2.4 nM,CC(C)(O)Cn1c(Nc2c(Cl)ccc(CNC(=O)C(C)(C)C)c2Cl)nc2cc(C(=O)Nc3ccc(OC(F)(F)F)cc3)c(N3CCC(C(F)(F)F)CC3)cc21 [Example 167]
17,1 nM,Cn1c(Nc2c(Cl)ccc(CNC(=O)C3(C)CC3)c2Cl)nc2cc(C(=O)N[C@H]3CC[C@H](C(F)(F)F)CC3)c(N3CC4CC4C3)cc21 (stereo partly shown) [Example 187]
18,1 nM,Cn1c(Nc2c(Cl)ccc(CNC(=O)C3(C(F)(F)F)CC3)c2Cl)nc2cc(C(=O)N[C@H]3CC[C@H](C(F)(F)F)CC3)c(N3CC4CC4C3)cc21 (stereo partly shown) [Example 188]
19,3 nM,Cn1c(Nc2c(Cl)ccc(CNC(=O)C3(O)CC3)c2Cl)nc2cc(C(=O)N[C@H]3CC[C@H](C(F)(F)F)CC3)c(N3CC4CC4C3)cc21 (stereo partly shown) [Example 189]
20,2 nM,Cn1c(Nc2c(Cl)ccc(CNC(=O)C(C)(C)F)c2Cl)nc2cc(C(=O)N[C@H]3CC[C@H](C(F)(F)F)CC3)c(N3CC4CC4C3)cc21 (stereo partly shown) [Example 191]
21,1 nM,Cn1c(Nc2c(Cl)ccc(CNC(=O)[C@@](C)(O)C(F)(F)F)c2Cl)nc2cc(C(=O)N[C@H]3CC[C@H](C(F)(F)F)CC3)c(N3CC4CC4C3)cc21 (stereo partly shown) [Example 192]
22,2.5 nM,Cn1c(Nc2c(Cl)ccc(CNC(=O)[C@@](C)(O)C(F)(F)F)c2Cl)nc2cc(C(=O)N[C@H]3CC[C@H](C(F)(F)F)CC3)c(N3CC4CC4C3)cc21 (stereo partly shown) [Example 193]
23,2.1 nM,Cn1c(Nc2c(Cl)ccc(CNC(=O)C(C)(C)CO)c2Cl)nc2cc(C(=O)N[C@H]3CC[C@H](C(F)(F)F)CC3)c(N3CC4CC4C3)cc21 (stereo partly shown) [Example 194]

# Same assay, conditions: Table C comparison of selected benzimidazoles, read-out: Cell IC50
row,IC50,SMILES
1,1 nM,"Cn1c(Nc2c(Cl)ccc(CNC(=O)C(C)(C)C)c2Cl)nc2cc(C(=O)N[C@H]3CC[C@H](C(F)(F)F)CC3)c(N3CCC(F)(F)C3)cc21 [Example 20, N-(trans-4-Trifluoromethyl-cyclohexyl)-2-{2,6-dichloro-3-[(2,2-dimethyl-propionylamino)-methyl]-phenylamino}-6-[3,3-difluoro-pyrrolidinyl]-1-methyl-1H-benzimidazole-5-carboxylic acid amide]"

# Same assay, conditions: mPGES-1 inhibitory effect IC50 in the cell assay, IL-1β 5 ng/ml, 10 nM arachidonic acid, 20-24 h
row,SMILES,IC50
1,"CC(C)(C)C(=O)NCc1ccc(Cl)c(Nc2nc3cc(C(=O)N[C@H]4CC[C@H](C(F)(F)F)CC4)c(N4CCOCC4)cc3n2CC(F)F)c1Cl [Example 71, N-(trans-4-Trifluoromethyl-cyclohexyl)-2-{2,6-dichloro-3-[(2,2-dimethyl-propionylamino)-methyl]-phenylamino}-6-[morpholin-1-yl]-(2,2-difluoroethyl)-benzimidazole-5-carboxylic acid amide]",< 1 nM
